Test results published in US8093060B2, “Multisite phosphorylated peptide (protein) recognizing compound and detection method, imaging method, alzheimer's disease diagnosing method and reagent kit using the same” (Canon Kabushiki Kaisha, priority 2008, dated 2012).
“Also recorded” adds a separate entry of the source.

Key:
Assay type in all cases: binding
Tau2P = biological target: T1, Tau2P (Homo sapiens, UniProt P10636); assay: Fluorescence titration of BODIPY-Zn(Dpa) with Tau2P; details: Tau 2P (i, i+4)
T1 construct: made in house; host or cells: chemical solid-phase synthesis
Procedure: (§1) The phosphorylated peptide-recognizing ability of BODIPY-Zn(Dpa) compound 9 (hereinafter referred to as BODIPY-Zn(Dpa)) was evaluated by measuring fluorescence spectra. Measurement was performed under the following conditions: [BODIPY-Zn(Dpa)]=5 μM; pH 7.2; 50 mM HEPES buffer; and 25° C. The excitation wavelength was λex=530 nm. […] When Tau2P was excessively added, this change reached saturation. The […] calculated from the fluorescence changes was 2.75×10^5 M^−1.

Tau1P = biological target: T2, Tau1P (Homo sapiens, UniProt P10636); assay: Fluorescence titration of BODIPY-Zn(Dpa) with Tau1P
T2 construct: made in house; host or cells: chemical solid-phase synthesis
Procedure: as §1

Tau204-2163P = biological target: T3, Tau204-2163P (Homo sapiens, UniProt P10636); assay: Fluorescence titration of BODIPY-Zn(Dpa) with Tau204-2163P
T3 construct: made in house; host or cells: chemical solid-phase synthesis
Procedure: as §1
(§2) Fluorescence changes when peptide Tau204-2163P or Tau204-2162P used in Example 1 was added dropwise were measured to calculate the affinity (association constant).

Tau204-2162P = biological target: T4, Tau204-2162P (Homo sapiens, UniProt P10636); assay: Fluorescence titration of BODIPY-Zn(Dpa) with Tau204-2162P (i, i+6)
T4 construct: made in house; host or cells: chemical solid-phase synthesis
Procedure: as §1, §2

[1] = biological target: T5, phosphorylated tau aggregate (p-Tau) (Homo sapiens, UniProt P10636); assay: Fluorescence staining of phosphorylated tau aggregate prepared in vitro
T5 construct: made in house; host or cells: Escherichia coli
T5 sequence (P10636 1-441 isoform P10636-8): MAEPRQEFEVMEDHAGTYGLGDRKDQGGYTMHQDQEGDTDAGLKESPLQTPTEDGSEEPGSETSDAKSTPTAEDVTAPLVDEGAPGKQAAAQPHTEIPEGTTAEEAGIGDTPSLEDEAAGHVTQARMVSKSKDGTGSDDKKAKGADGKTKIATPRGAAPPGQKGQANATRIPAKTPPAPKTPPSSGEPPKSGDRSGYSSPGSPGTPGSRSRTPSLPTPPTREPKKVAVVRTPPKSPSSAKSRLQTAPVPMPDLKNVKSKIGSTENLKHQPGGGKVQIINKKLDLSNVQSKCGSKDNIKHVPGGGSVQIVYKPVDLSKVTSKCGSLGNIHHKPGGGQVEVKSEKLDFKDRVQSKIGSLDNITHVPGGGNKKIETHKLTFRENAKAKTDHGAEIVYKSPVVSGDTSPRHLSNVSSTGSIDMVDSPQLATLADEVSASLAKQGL
Procedure: (§3) Tau proteins (8 μM) expressed by Escherichia coli and heparin (1.6 μM) were incubated at 37° C. for 20 days to prepare a tau aggregate. A phosphorylated tau aggregate was similarly prepared using tau proteins phosphorylated with GSK-3β in vitro. The results of Pro-Q diamond staining after performing SDS-PAGE confirmed that the in-vitro phosphorylation was performed with a phosphorylation degree of 6 mol P/mol Tau.
(§4) 10 μM BODIPY-Zn(Dpa) or 10 μM thioflavine T (may be referred to as ThT) were added to the prepared tau aggregate or phosphorylated tau aggregate. After the addition, the mixture was washed twice with 0.5 mM Zn(NO3)2, and a suspension (0.5 μL) of the stained phosphorylated tau aggregate was air-dried on a cover glass and observed under a confocal laser scanning microscope (OLYMPUS FV-1000, Obj. lens 100×).

[2] = biological target: T6, nonphosphorylated Tau aggregate (n-Tau) (Homo sapiens, UniProt P10636); assay: Fluorescence staining of nonphosphorylated tau aggregate prepared in vitro; details: 10 μM dye
T6 construct: made in house; host or cells: Escherichia coli
T6 sequence (P10636 1-441 isoform P10636-8): as above
Procedure: as §3, §4

tau aggregate [3] = biological target: T7, tau aggregate (Homo sapiens, UniProt P10636); assay: Fluorescence titration of tau aggregate against 100 nM BODIPY-Zn(Dpa); details: tau 0 to 320 nM against 100 nM BODIPY-Zn(Dpa), 37° C., 60 min
T7 construct: made in house; host or cells: Escherichia coli
T7 sequence (P10636 1-441 isoform P10636-8): as above
Procedure: The ranges of concentrations at which a phosphorylated tau aggregate, a tau aggregate, and an amyloid β aggregate interact with BODIPY-Zn(Dpa) were examined by titration. Titration was performed in the range of tau concentrations of 0 to 320 nM (0 to 14 μg/mL) against 100 nM of BODIPY-Zn(Dpa). Using a solvent obtained by adding 10% DMSO and 10 μM Zn(NO3)2 to HBS (10 mM HEPES (pH 7.4), 150 mM NaCl), the solution was incubated at 37° C. for 60 min, and fluorescence was measured (excitation wavelength, 490 nm; fluorescence wavelength, 545 nm).

tau aggregate [4] = biological target: T7, tau aggregate; assay: Fluorescence titration of BODIPY-Zn(Dpa) against tau aggregate (EC50); details: aggregate 1 μg/mL, 37° C., 30 min
Procedure: (§5) BODIPY-Zn(Dpa) was titrated against a phosphorylated tau aggregate, a tau aggregate, and an amyloid β aggregate to obtain EC50 (a probe concentration at which a half value of the maximum change (ΔFmax) in fluorescence intensity is observed). BODIPY-Zn(Dpa) was titrated against an aggregate at a predetermined concentration (1 μg/mL), and changes in fluorescence intensity at each concentration (ΔF) were plotted. Using a solvent obtained by adding 10% DMSO and 100 μM Zn(NO3)2 to HBS (10 mM HEPES (pH 7.4), 150 mM NaCl), the solution was incubated at 37° C. for 30 min, and fluorescence was measured (excitation wavelength, 490 nm; fluorescence wavelength, 545 nm).

amyloid β aggregate = biological target: T8, amyloid β aggregate (Homo sapiens, UniProt P05067); assay: Fluorescence titration of BODIPY-Zn(Dpa) against amyloid β aggregate (EC50); details: aggregate 1 μg/mL, 37° C., 30 min
T8 construct: (Aβ1-42) indicates amyloid β aggregate
T8 sequence (P05067 672-713 limits assumed): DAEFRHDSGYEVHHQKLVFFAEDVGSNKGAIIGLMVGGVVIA
Procedure: as §5

## CC1=C(c2ccc(CN(C)Cc3ccccn3)nc2)C(C)=[N+]2C1=C(c1cc(OCCOCCOCCO)cc(OCCOCCOCCO)c1)c1c(C)c(-c3ccc(CN(C)Cc4ccccn4)nc3)c(C)n1[B-]2(F)F.O=[N+]([O-])[O-].O=[N+]([O-])[O-].O=[N+]([O-])[O-].O=[N+]([O-])[O-].[Zn+2].[Zn+2] [BODIPY-Zn(Dpa)]
Tau2P; BODIPY-Zn(Dpa) 5 μM, pH 7.2, 25° C.
  I/I0 - 1 at saturation: 0.55
Tau2P; calculated from fluorescence changes
  Association constant: 275000 M⁻¹
Tau1P; Tau 1P
  I/I0 - 1 at saturation: No change
Tau1P; Tau1P, monophosphorylated
  fluorescence intensity change on addition of peptide: no major change was observed; also recorded: does not change
Tau204-2163P; Tau204-216 3P (i, i+4, i+6)
  Association constant: 230000 M⁻¹
  I/I0 - 1 at saturation: 0.25
Tau204-2163P; Tau204-2163P
  detection of peptide by fluorescence change: could be detected
Tau204-2162P; Tau204-216 2P (i, i+6)
  I/I0 - 1 at saturation: No change
Tau204-2162P; Tau204-2162P (i, i+6)
  detection of / interaction with peptide by fluorescence change: could not be detected; also recorded: did not interact
[1]; p-Tau in the presence of pyrophosphoric acid (PPi)
  staining of aggregate: did not stain the aggregate
[1]; p-Tau, 10 μM dye
  staining of aggregate: could bind to and stain the p-Tau aggregate
[2]
  staining of aggregate: is not observed
Tau aggregate [3]
  concentration range of interaction: in the range of nM
Tau aggregate [4]
  EC50: 0.08 µM
Amyloid β aggregate
  EC50: 0.65 µM
